Results on 24 compounds are retold here after patent publication US11286266B2, “1-imidazothiadiazolo-2H-pyrrol-5-one derivatives” (UCB Biopharma SRL, priority 2018, dated 2022).

Several values for one entry are separate records, joined by “and”; a condition that tells them apart may be missing. Equal entries are not always repeated.

The Ki is a dissociation constant, usually derived from enzyme kinetics or from competition with a known ligand. A high value points to a looser hold on the target.

T1 sequence (Q7L0J3 whole entry): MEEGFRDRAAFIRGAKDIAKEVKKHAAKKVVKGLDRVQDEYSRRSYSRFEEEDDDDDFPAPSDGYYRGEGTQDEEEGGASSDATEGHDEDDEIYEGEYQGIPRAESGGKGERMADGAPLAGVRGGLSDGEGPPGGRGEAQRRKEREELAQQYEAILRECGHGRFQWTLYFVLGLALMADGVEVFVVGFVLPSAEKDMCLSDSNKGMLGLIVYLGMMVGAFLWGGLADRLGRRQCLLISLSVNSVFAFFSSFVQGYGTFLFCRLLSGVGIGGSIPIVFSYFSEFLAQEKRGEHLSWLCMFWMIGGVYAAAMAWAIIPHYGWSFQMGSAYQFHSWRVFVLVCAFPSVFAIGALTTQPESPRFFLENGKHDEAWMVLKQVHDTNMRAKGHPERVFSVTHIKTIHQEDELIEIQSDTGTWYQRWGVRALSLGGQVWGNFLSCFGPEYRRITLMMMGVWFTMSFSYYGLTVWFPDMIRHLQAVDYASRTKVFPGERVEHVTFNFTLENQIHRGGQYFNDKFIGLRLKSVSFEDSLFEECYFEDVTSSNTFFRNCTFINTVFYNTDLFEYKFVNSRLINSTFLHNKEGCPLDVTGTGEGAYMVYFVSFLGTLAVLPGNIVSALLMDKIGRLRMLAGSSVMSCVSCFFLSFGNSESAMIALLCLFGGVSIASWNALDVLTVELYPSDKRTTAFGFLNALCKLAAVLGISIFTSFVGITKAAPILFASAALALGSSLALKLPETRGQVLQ

The test concerns the target T1, Human SV2A (Homo sapiens, UniProt Q7L0J3).
T1 construct: expressed in transfected cells; host or cells: human embryonic kidney (HEK) cells; membrane preparations
The test can be described thus: Binding assay to SV2A (radioligand competition, HEK membranes). The note with it: human SV2A in HEK membranes, 60 min at 37° C., pIC50 corrected to pKi by Cheng and Prusoff. The method, then: Human SV2A and SV2C proteins were expressed in human embryonic kidney (HEK) cells. HEK SV2A and HEK SV2C membrane preparations were prepared as described in Gillard et al (Eur. J. Pharmacol. 2006, 536, 102-108). To measure affinity of non-labelled compounds, competition experiments were performed as follow: Membranes expressing SV2 proteins (5 to 15 μg proteins per assay) were incubated for 60 min at 37° C. with either [^3H]-2-[4-(3-azidophenyl)-2-oxo-1-pyrrolidinyl]butanamide (5 nM) and/or [^3H]-4R-(2-chloro-2,2-difluoroethyl)-1-{[2-(methoxymethyl)-6-(trifluoromethyl)imidazo[2,1-b][1,3,4]thiadiazol-5-yl]methyl}pyrrolidin-2-one (25 nM) in 0.2 ml of a 50 mM Tris-HCl buffer (pH 7.4) containing 2 mM MgCl2, 0.1% dimethylsulfoxide and ten increasing concentrations of non-labelled test compound (0.1 nM to 10 μM). At the end of the incubation period, the membrane-bound radioligand was recovered by rapid filtration through GF/C glass fiber filters pre-soaked in 0.1% polyethyleneimine. Membranes were washed with at least 4 times the assay volume of ice-cold 50 mM Tris HCl buffer (pH 7.4). The filters were dried and the radioactivity determined by liquid scintillation. […] Measured affinity plC50 values were corrected to pKi according to Cheng and Prusoff (Biochem. Pharmacol. 1973, 22(23), 3099-3108).
(Displacement assays read how much labelled ligand stays bound in the presence of the test substance.)
In turn, `COCc1nn2c(CN3CC(CCC(F)(F)F)=CC3=O)c(C)nc2s1` [Example 13, 1-[[2-(methoxymethyl)-6-methyl-imidazo[2,1-b][1,3,4]thiadiazol-5-yl]methyl]-3-(3,3,3-trifluoropropyl)-2H-pyrrol-5-one] had a Ki of 3.16 to 10 nM. In the case of `COCc1nn2c(CN3CC(CC(C)(F)F)=CC3=O)c(C)nc2s1` [Example 20, 3-(2,2-difluoropropyl)-1-[[2-(methoxymethyl)-6-methyl-imidazo[2,1-b][1,3,4]thiadiazol-5-yl]methyl]-2H-pyrrol-5-one] it was 10 to 31.6 nM; in that of `COCc1nn2c(CN3CC(CC(F)(F)Cl)=CC3=O)c(C(F)(F)F)nc2s1` [Example 12, 3-(2-chloro-2,2-difluoro-ethyl)-1-[[2-(methoxymethyl)-6-(trifluoromethyl)imidazo[2,1-b][1,3,4]thiadiazol-5-yl]methyl]-2H-pyrrol-5-one], 3.16 to 10 nM.

For `O=C1C=C(CCC(F)(F)F)CN1Cc1c(C(F)F)nc2sc(CO)nn12` [Example 22, 1-[[6-(difluoromethyl)-2-(hydroxymethyl)imidazo[2,1-b][1,3,4]thiadiazol-5-yl]methyl]-3-(3,3,3-trifluoropropyl)-2H-pyrrol-5-one], the Ki is 31.6 to 316 nM.

As for `COCc1nn2c(CN3CC(CCC(F)(F)F)=CC3=O)c(C(F)(F)F)nc2s1` [Example 3, 1-[[2-(methoxymethyl)-6-(trifluoromethyl)imidazo[2,1-b][1,3,4]thiadiazol-5-yl]methyl]-3-(3,3,3-trifluoropropyl)-2H-pyrrol-5-one], the Ki is 3.16 to 10 nM. The compound `CCCC1=CC(=O)N(Cc2c(C)nc3sc(COC)nn23)C1` [Example 4, 1-[[2-(methoxymethyl)-6-methyl-imidazo[2,1-b][1,3,4]thiadiazol-5-yl]methyl]-3-propyl-2H-pyrrol-5-one] had a Ki of 3.16 to 10 nM. As to `COCc1nn2c(CN3CC(C4CC4(F)F)=CC3=O)c(C)nc2s1` (single isomer, unassigned) [Example 18-A, 1-[[2-(methoxymethyl)-6-methyl-imidazo[2,1-b][1,3,4]thiadiazol-5-yl]methyl]-3-[2,2-difluorocyclopropyl]-2H-pyrrol-5-one], the inhibitory constant (Ki) was 10 to 31.6 nM. In the case of `CCCC1=CC(=O)N(Cc2c(C(F)(F)F)nc3sc(COC)nn23)C1` [Example 1, 1-[[2-(methoxymethyl)-6-(trifluoromethyl)imidazo[2,1-b][1,3,4]thiadiazol-5-yl]methyl]-3-propyl-2H-pyrrol-5-one] it was 3.16 to 10 nM; in that of `COCc1nn2c(CN3CC(CC(F)(F)F)=CC3=O)c(C(F)F)nc2s1` [Example 10, 1-[[6-(difluoromethyl)-2-(methoxymethyl)imidazo[2,1-b][1,3,4]thiadiazol-5-yl]methyl]-3-(2,2,2-trifluoroethyl)-2H-pyrrol-5-one], 3.16 to 10 nM. In the case of `CCCC1=CC(=O)N(Cc2c(C(F)F)nc3sc(COC)nn23)C1` [Example 8, 1-[[6-(difluoromethyl)-2-(methoxymethyl)imidazo[2,1-b][1,3,4]thiadiazol-5-yl]methyl]-3-propyl-2H-pyrrol-5-one] it was 3.16 to 10 nM; in that of `COCc1nn2c(CN3CC(C4CC4(F)F)=CC3=O)c(C(F)(F)F)nc2s1` (single isomer, unassigned) [Example 17-A, 3-(2,2-difluorocyclopropyl)-1-[[2-(methoxymethyl)-6-(trifluoromethyl)imidazo[2,1-b][1,3,4]thiadiazol-5-yl]methyl]-2H-pyrrol-5-one], 3.16 to 10 nM; in that of `COCc1nn2c(CN3CC(CC(F)(F)F)=CC3=O)c(Cl)nc2s1` [Example 5, 1-[[6-chloro-2-(methoxymethyl)imidazo[2,1-b][1,3,4]thiadiazol-5-yl]methyl]-3-(2,2,2-trifluoroethyl)-2H-pyrrol-5-one], 10 to 31.6 nM. The same measure for `Cc1nc2sc(CO)nn2c1CN1CC(CCC(F)(F)F)=CC1=O` [Example 21, 1-[[2-(hydroxymethyl)-6-methyl-imidazo[2,1-b][1,3,4]thiadiazol-5-yl]methyl]-3-(3,3,3-trifluoropropyl)-2H-pyrrol-5-one]: 31.6 to 316 nM; for `COCc1nn2c(CN3CC(C4CC4(F)F)=CC3=O)c(C)nc2s1` (single isomer, unassigned) [Example 18-B, 1-[[2-(methoxymethyl)-6-methyl-imidazo[2,1-b][1,3,4]thiadiazol-5-yl]methyl]-3-[2,2-difluorocyclopropyl]-2H-pyrrol-5-one]: 31.6 to 316 nM; for `COCc1nn2c(CN3CC(CC(F)(F)F)=CC3=O)c(C)nc2s1` [Example 9, 1-[[2-(methoxymethyl)-6-methyl-imidazo[2,1-b][1,3,4]thiadiazol-5-yl]methyl]-3-(2,2,2-trifluoroethyl)-2H-pyrrol-5-one]: 3.16 to 10 nM. In the case of `COCc1nn2c(CN3CC(CC(C)(F)F)=CC3=O)c(C(F)F)nc2s1` [Example 16, 1-[[6-(difluoromethyl)-2-(methoxymethyl)imidazo[2,1-b][1,3,4]thiadiazol-5-yl]methyl]-3-(2,2-difluoropropyl)-2H-pyrrol-5-one], the Ki was 3.16 to 10 nM. The same measure for `COCc1nn2c(CN3CC(C4CC4(F)F)=CC3=O)c(C(F)F)nc2s1` (single isomer, unassigned) [Example 19-A, 1-[[6-(difluoromethyl)-2-(methoxymethyl)imidazo[2,1-b][1,3,4]thiadiazol-5-yl]methyl]-3-[2,2-difluorocyclopropyl]-2H-pyrrol-5-one]: 3.16 to 10 nM. In the case of `COCc1nn2c(CN3CC(CC(F)(F)F)=CC3=O)c(C3(F)CC3)nc2s1` [Example 11, 1-[[6-(1-fluorocyclopropyl)-2-(methoxymethyl)imidazo[2,1-b][1,3,4]thiadiazol-5-yl]methyl]-3-(2,2,2-trifluoroethyl)-2H-pyrrol-5-one] it was 10 to 31.6 nM and 3.16 to 10 nM; in that of `COCc1nn2c(CN3CC(CCC(F)(F)F)=CC3=O)c(Cl)nc2s1` [Example 7, 1-[[6-chloro-2-(methoxymethyl)imidazo[2,1-b][1,3,4]thiadiazol-5-yl]methyl]-3-(3,3,3-trifluoropropyl)-2H-pyrrol-5-one], 3.16 to 10 nM. `O=C1C=C(CC(F)(F)F)CN1Cc1c(C(F)F)nc2sc(CO)nn12` [Example 23, 1-[[6-(difluoromethyl)-2-(hydroxymethyl)imidazo[2,1-b][1,3,4]thiadiazol-5-yl]methyl]-3-(2,2,2-trifluoroethyl)-2H-pyrrol-5-one] gave a Ki of 31.6 to 316 nM. The compound `CCCC1=CC(=O)N(Cc2c(Cl)nc3sc(COC)nn23)C1` [Example 6, 1-[[6-chloro-2-(methoxymethyl)imidazo[2,1-b][1,3,4]thiadiazol-5-yl]methyl]-3-propyl-2H-pyrrol-5-one] had a Ki of 3.16 to 10 nM. In turn, `COCc1nn2c(CN3CC(CC(F)(F)F)=CC3=O)c(C(F)(F)F)nc2s1` [Example 2, 1-[[2-(methoxymethyl)-6-(trifluoromethyl)imidazo[2,1-b][1,3,4]thiadiazol-5-yl]methyl]-3-(2,2,2-trifluoroethyl)-2H-pyrrol-5-one] had a Ki of 10 to 31.6 nM.

Compound `COCc1nn2c(CN3CC(CC(C)(F)F)=CC3=O)c(C(F)(F)F)nc2s1` [Example 15, 3-(2,2-difluoropropyl)-1-[[2-(methoxymethyl)-6-(trifluoromethyl)imidazo[2,1-b][1,3,4]thiadiazol-5-yl]methyl]-2H-pyrrol-5-one] gave a Ki of 3.16 to 10 nM. With `COCc1nn2c(CN3CC(CCC(F)(F)F)=CC3=O)c(C(F)F)nc2s1` [Example 14, 1-[[6-(difluoromethyl)-2-(methoxymethyl)imidazo[2,1-b][1,3,4]thiadiazol-5-yl]methyl]-3-(3,3,3-trifluoropropyl)-2H-pyrrol-5-one], the Ki is 3.16 to 10 nM.
